Reference: paper PMC7532004, “Site-specific effects of neurosteroids on GABAA receptor activation and desensitization” (eLife, 2020)

Tests used:
[1] = biological target: α1(Q242L)β3 GABAAR (UniProt P28472+P62813, Q268L); experiment: Two-electrode voltage clamp in Xenopus laevis oocytes, Q242L mutant; type: cell-based; set-up: expressed in transfected cells; host or cells: Xenopus laevis oocytes injected with cRNA
Method: (§1) The wild-type and mutant α1β3 GABAAR were expressed in oocytes from the African clawed frog (Xenopus laevis). Frogs were purchased from Xenopus 1 (Dexter, MI), and housed and cared for in a Washington University Animal Care Facility under the supervision of the Washington University Division of Comparative Medicine. Harvesting of oocytes was conducted under the Guide for the Care and Use of Laboratory Animals as adopted and promulgated by the National Institutes of Health. The animal protocol (No. 20180191) was approved by the Animal Studies Committee of Washington University in St. Louis. The oocytes were injected with a total of 12 ng cRNA. The ratio of cRNAs was 5:1 ratio (α1:β3) to minimize the expression of β3 homomeric receptors. Following injection, the oocytes were incubated in ND96 (96 mM NaCl, 2 mM KCl, 1.8 mM CaCl2, 1 mM MgCl2, 5 mM HEPES; pH 7.4) with supplements (2.5 mM Na pyruvate, 100 U/ml penicillin, 100 μg/ml streptomycin and 50 μg/ml gentamycin) at 16°C for 2 days prior to conducting electrophysiological recordings. The electrophysiological recordings were conducted at room temperature using standard two-electrode voltage clamp. The oocytes were clamped at −60 mV. The chamber (RC-1Z, Warner Instruments, Hamden, CT) was perfused with ND96 at 5–8 ml/min. […] Current traces were analyzed with Clampfit (Molecular Devices). […]

[2] = biological target: α1(V256S)β3 GABAAR (UniProt P28472+P62813, V283S); experiment: [3H]muscimol binding to HEK cell membranes, desensitization-eliminating mutant; set-up: expressed in transfected cells; host or cells: HEK293S GnTI- (ATCC CRL-3022), transient; species or system rat α1, human β3; settings: 10 μM neurosteroid; 3 nM [3H]muscimol
Method: The human α1 and β3 GABAAR subunits were subcloned into pcDNA3 for molecular manipulations and cRNA synthesis. Using QuikChange Site-Directed Mutagenesis Kit (Agilent Technologies, Santa Clara, CA), a FLAG tag was first added to the α1 subunit then an 8xHis tag was added to generate the following His-FLAG tag tandem ([…]), inserted between the fourth and fifth residues of the mature peptide. The α1 and β3 subunits were then transferred into the pcDNA4/TO and pcDNA5/TO vectors (Thermo Fisher Scientific), respectively, for tetracycline inducible expression. Transient expression was done using the GABAAR subunits rat α1FLAG ([Ueno et al., 1996]) and human β3 obtained from Geoffrey White (Neurogen, Branford, CT), each were subcloned into pcDNA3 for molecular manipulations and cRNA synthesis. […]
[^3H]muscimol-binding assays were performed using a previously described method ([Chen et al., 2019]). […] Time courses of neurosteroid [^3H]muscimol binding enhancement were examined by adding 10 µM of neurosteroids (3α5αP, 3β5αP) to membranes that had been fully equilibrated with 3 nM [^3H]muscimol for 1 hr on ice; binding was then measured as a function of time at 1, 3, 10, 30, 60 min. […] Radioactivity bound to the filters was measured by liquid scintillation spectrometry using Bio-Safe II (Research Products International, Mount Prospect, IL).

[3] = tested on: α1(N408A/Y411F)β3 GABAAR; experiment: Two-electrode voltage clamp in Xenopus laevis oocytes, N408A/Y411F mutant; type: cell-based; settings: 3 μM 3β5αP, 1 mM GABA; α1(N408A/Y411F)β3 vs WT
Method: as §1

[4] = tested on: α1β3(Y284F) GABAAR; experiment: Two-electrode voltage clamp in Xenopus laevis oocytes, Y284F mutant; type: cell-based; settings: 3 μM 3β5αP, 1 mM GABA; α1β3(Y284F) vs WT
Method: as §1

[5] = biological target: T1, α1(Q242L/N408A/Y411F)β3(Y284F) GABAAR (UniProt P28472+P62813, N434A/Q268L/Y309F/Y437F); experiment: Two-electrode voltage clamp in Xenopus laevis oocytes, all three sites mutated; type: cell-based; settings: 3 μM 3β5αP, 1 mM GABA + 25 μM pentobarbital
T1 construct: expressed in transfected cells; host or cells: Xenopus laevis oocytes injected with cRNA
Method: as §1

[6] = biological target: T2, α1(N408A/Y411F)β3(Y284F) GABAAR (UniProt P28472+P62813, N434A/Y309F/Y437F); experiment: Two-electrode voltage clamp in Xenopus laevis oocytes, both intrasubunit sites mutated; type: cell-based; settings: 3 μM 3β5αP, 1 mM GABA + 25 μM pentobarbital
T2 construct: expressed in transfected cells; host or cells: Xenopus laevis oocytes injected with cRNA
Method: as §1

[7] = biological target: T3, α1(V227W)β3 GABAAR (UniProt P28472+P62813, V253W); experiment: [3H]muscimol binding to HEK cell membranes, α1 intrasubunit site mutant V227W; set-up: species or system rat α1, human β3
T3 construct: expressed in transfected cells; host or cells: HEK293S GnTI- (ATCC CRL-3022), transient
Method: The human α1 and β3 GABAAR subunits were subcloned into pcDNA3 for molecular manipulations and cRNA synthesis. Using QuikChange Site-Directed Mutagenesis Kit (Agilent Technologies, Santa Clara, CA), a FLAG tag was first added to the α1 subunit then an 8xHis tag was added to generate the following His-FLAG tag tandem ([…]), inserted between the fourth and fifth residues of the mature peptide. The α1 and β3 subunits were then transferred into the pcDNA4/TO and pcDNA5/TO vectors (Thermo Fisher Scientific), respectively, for tetracycline inducible expression. Transient expression was done using the GABAAR subunits rat α1FLAG ([Ueno et al., 1996]) and human β3 obtained from Geoffrey White (Neurogen, Branford, CT), each were subcloned into pcDNA3 for molecular manipulations and cRNA synthesis. Point mutations were generated using the QuikChange Site-Directed Mutagenesis Kit (Agilent) and the coding region was fully sequenced prior to use. The cDNAs were linearized with XbaI (NEB Labs, Ipswich, MA), and the cRNAs were generated using T7 mMessage mMachine (Ambion, Austin, TX).
[^3H]muscimol-binding assays were performed using a previously described method ([Chen et al., 2019]). […] Assay tubes were incubated for 1 hr on ice in the dark. […] Membranes were collected on Whatman/GF-C glass filter papers using a Brandel cell harvester (Gaithersburg, MD). To perform [^3H]muscimol binding isotherms, 100 μg/ml aliquots of membrane protein were incubated with 0.3 nM–1 μM [^3H]muscimol for 1 hr on ice in the dark. The specific activity for [^3H]muscimol concentrations from 30 nM to 1 μM was reduced to 2 Ci/mmol by dilution with nonradioactive muscimol. The membranes were collected on Whatman/GF-B glass filter papers using a vacuum manifold. […] For [^3H]muscimol-binding experiments examining competitive interactions between neurosteroids, the combined neurosteroids (0.3 μM 3α5αP or 3 μM KK148 ±30 μM KK150) or the same volume of dimethyl sulfoxide (DMSO) were added to the membranes which were then incubated with 3 nM [^3H]muscimol on ice for 1 hr. Time courses of neurosteroid [^3H]muscimol binding enhancement were examined by adding 10 µM of neurosteroids (3α5αP, 3β5αP) to membranes that had been fully equilibrated with 3 nM [^3H]muscimol for 1 hr on ice; binding was then measured as a function of time at 1, 3, 10, 30, 60 min. The membranes were collected on Whatman/GF-B glass filter papers using a vacuum manifold. Radioactivity bound to the filters was measured by liquid scintillation spectrometry using Bio-Safe II (Research Products International, Mount Prospect, IL).

## CC(=O)[C@H]1CC[C@H]2[C@@H]3CC[C@H]4C[C@H](O)CC[C@]4(C)[C@H]3CC[C@]12C [3α5αP, allopregnanolone]
[1]; 3 μM 3α5αP, 1 mM GABA + 40 μM pentobarbital, α1(Q242L)β3
  Effect on steady-state current: small reduction
[2]
  Enhancement of specific [3H]muscimol binding in α1(V256S)β3 compared with WT: unaffected

## CC(=O)[C@H]1CC[C@H]2[C@@H]3CC[C@H]4C[C@@H](O)CC[C@]4(C)[C@H]3CC[C@]12C [3β5αP, epi-allopregnanolone]
[3]
  Prevention of 3β5αP-enhanced desensitization by mutation: ~ 67%
[1]; 3 μM 3β5αP, 1 mM GABA, α1(Q242L)β3 vs WT
  Effect of mutation on 3β5αP-enhanced desensitization: without effect
[4]
  Prevention of 3β5αP-enhanced desensitization by mutation: ~ 67%
[5]
  Desensitizing effect with combined mutations of all three binding sites: not completely eliminated
[2]
  Enhancement of specific [3H]muscimol binding in α1(V256S)β3 compared with WT: absent
[6]
  Enhancement of desensitization compared with single intrasubunit site mutants: less NS-enhancement of desensitization

## C#CCCO[C@H]1CC[C@H]2[C@@H]3CC[C@H]4CC5(CC[C@]4(C)[C@H]3CC[C@]12C)N=N5 [KK148]
[7]; 3 nM [3H]muscimol
  Hill slope for modulation of [3H]muscimol binding: 0.76 ± 0.31
[7]; 3 nM [3H]muscimol, 100% means no effect
  Emax (% of control) of [3H]muscimol binding: **209.2 ± 7.4 % of control
[7]; 3 nM [3H]muscimol, read-out: EC50 for modulation of [3H]muscimol binding
  EC50: 1730 ± 680 nM

## NCc1cc(=O)[nH]o1 [muscimol]
[7]
  Bmax of [3H]muscimol binding isotherm: 11.6 ± 0.4 (P > 0.99 vs. WT) pmol/mg
[7]; read-out: Kd of [3H]muscimol binding isotherm
  Kd: 54.1 ± 5.8 nM
